Laboratory results published in patent EP0799188B1, “AMIDES OF MONO AND DICARBOXYLIC ACIDS WITH GLYCOSAMINES, SELECTIVELY ACTIVE ON THE CANNABINOID PERIPHERAL RECEPTOR” (LIFEGROUP S.p.A., priority 1994, dated 1996).
Read-outs that look alike come from different tables or passages of the source.

Experiments:
[1] = solubility in organic solvents; format: physicochemical; settings: organic solvent or mixture, read-out: solubility in org. sol.
RBL-2H3 cells = experiment: 3H-serotonin release induced by ADNP/DNP.HSA immunogenic stimulation; format: cell-based, rat; settings: for effect on serotonin release (RBL cells immunogenic activation): statement in words on Table 3; for inhibition at 5 µM: RBL-2H3, read-out: 3H-serotonin net release inhibition (%), 5µM
[2] = system: cerebellar granule cell culture; experiment: neuroprotective effect against glutamate-induced cell death (MTT); format: cell-based, mouse; settings: Mus musculus; glutamate 500 µM for 5 minutes; compound added for 10 minutes, 15 minutes after removing glutamate; MTT after 24 hours; means ± SEM; read-out: EC50
CB2 receptor = biological target: T1, CB2 receptor (Rattus norvegicus, UniProt Q9QZN9); experiment: 3H-WIN 55,212-2 binding displacement on RBL-2H3 cell membranes
T1 construct: 30 µg membrane proteins prepared in item a); endogenous in cells; host or cells: RBL-2H3 cells (plasma membrane preparation)
T1 sequence (Q9QZN9 1-360): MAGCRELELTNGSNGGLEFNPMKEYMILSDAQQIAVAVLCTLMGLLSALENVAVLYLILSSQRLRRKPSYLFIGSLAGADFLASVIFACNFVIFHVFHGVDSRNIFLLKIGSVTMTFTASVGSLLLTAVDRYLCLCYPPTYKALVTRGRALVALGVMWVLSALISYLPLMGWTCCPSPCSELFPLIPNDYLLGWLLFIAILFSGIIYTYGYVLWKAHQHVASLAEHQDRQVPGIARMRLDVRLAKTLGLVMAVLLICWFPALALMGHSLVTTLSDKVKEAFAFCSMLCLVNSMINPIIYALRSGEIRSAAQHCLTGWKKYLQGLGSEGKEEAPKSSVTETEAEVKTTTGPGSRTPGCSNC

[3] = Rattus norvegicus, RBL-2H3, concentration inhibiting by 50% the net release of 3H serotonin, 0.2% DMSO, 15 minutes release period, means ± SEM, read-out: EC50
[4] = Rattus norvegicus, RBL-2H3, DMSO 0.2%
[5] = Rattus norvegicus, RBL-2H3, DMSO 1%, 100µM
[6] = Rattus norvegicus, RBL-2H3, DMSO 0.2%, 100µM

CCCCCCCCCCCCCCCC(=O)NCCCC(=O)O [Example 11, N-palmitoyl-gamma-aminobutyric acid]
solubility ([1]; in DMSO): > 5000 µg/mL
solubility ([1]; in ethanol): > 5000 µg/mL
water solubility (water solubility): slightly soluble
EC50 (RBL-2H3 cells; [3]): 26 ± 18 µM

CCCCC/C=C\C/C=C\C/C=C\C/C=C\CCCC(=O)O [arachidonic acid, reference compound]
inhibition at 12.5 µM (RBL-2H3 cells; Rattus norvegicus, RBL-2H3, 12.5µM, -WIN, read-out: 3H-serotonin net release inhibition (%)): 4%

CCCCCCCCCCCC(=O)N[C@H]1C(O)O[C@H](CO)[C@@H](O)[C@@H]1O (stereo partly drawn) [Example 15, N-lauroyl-D-glucosamine]
solubility ([1]; in DMSO): > 5000 µg/mL
water solubility (water solubility): slightly soluble
inhibition at 20 µM (RBL-2H3 cells; [4]): 67%
inhibition at 100 µM (RBL-2H3 cells; [5]): 86%
EC50 (RBL-2H3 cells; [3]): 12 µM

O=C(O)CNC(=O)/C=C/CCCCCCCCC(=O)NCC(=O)O [Example 13, N,N'-trans-2-dodecendioyl-diglycine]
solubility ([1]; in DMSO): > 10000 µg/mL
water solubility (water solubility): slightly soluble
solubility (water solubility; water): > 10000 µg/mL
inhibition at 100 µM (RBL-2H3 cells; [5]): 54%

CCCCCc1cc(O)c2c(c1)OC(C)(C)[C@@H]1CCC(C)=C[C@@H]21 [Δ9-THC, Δ9-tetrahydrocannabinol, reference compound]
3H-serotonin net release (%) (RBL-2H3 cells; 25µM, 0.1% DMSO and 0.1% ethanol): 27%
EC50 (RBL-2H3 cells; Rattus norvegicus, RBL-2H3, read-out: ED50 (µm)): 5 µM
inhibition at 25 µM (RBL-2H3 cells; Rattus norvegicus, RBL-2H3, 25µM, -anandamide, read-out: 3H-serotonin net release inhibition (%)): 73%
EC50 (RBL-2H3 cells; Rattus norvegicus, RBL-2H3, read-out: ED50 (the source's name)): 5 µM
effect on serotonin release (RBL cells immunogenic activation) (RBL-2H3 cells): able to inhibit, in a concentration-dependent way

CCCCC/C=C\C/C=C\CCCCCCCC(=O)NCCO [N-(2-hydroxyethyl)-linoleylamide, reference compound]
3H-serotonin net release (%) (RBL-2H3 cells; 100µM, 0.1% DMSO and 0.1% ethanol): 100%

CCCCCCCCCCCC(=O)N1CC(O)C[C@H]1C(=O)O (stereo partly drawn) [Example 17, N-lauroyl-4-hydroxy-L-proline]
solubility ([1]; in DMSO): > 10000 µg/mL
solubility ([1]; in ethanol): > 10000 µg/mL
water solubility (water solubility): slightly soluble
solubility (water solubility; phosphate buffer, pH 7.4, aqueous buffer): > 10000 µg/mL

CCCCCCCC/C=C\CCCCCCCC(=O)N[C@H]1C(O)O[C@H](CO)[C@@H](O)[C@@H]1O (stereo partly drawn) [Example 16, N-oleoyl-D-glucosamine]
solubility ([1]; in DMSO): > 5000 µg/mL
water solubility (water solubility): slightly soluble
inhibition at 20 µM (RBL-2H3 cells; [4]): 92%
inhibition at 100 µM (RBL-2H3 cells; [5]): 86%
EC50 (RBL-2H3 cells; [3]): 2.4 ± 0.5 µM
EC50 (RBL-2H3 cells; Rattus norvegicus, RBL-2H3, inhibition of 3H-serotonin release, +anandamide (12.5 µM), read-out: ED50 (the source's name)): 4.2 µM
EC50 (RBL-2H3 cells; Rattus norvegicus, RBL-2H3, inhibition of 3H-serotonin release, -anandamide, read-out: ED50 (the source's name)): 2.9 µM

CCCCCCCC/C=C\CCCCCCCC(=O)N[C@@H](CO)C(=O)O [Example 3, N-oleoyl-L-serine]
solubility ([1]; in DMSO): > 10000 µg/mL
water solubility (water solubility): slightly soluble

CCCCCCC(C)(C)c1cc(O)c2c(c1)OC(C)(C)C1CCC(=O)CC21 (stereo not shown) [Nabilone, 3-(1,1-dimethylheptyl)-6,6a,7,8,10,10a-hexahydro-1-hydroxy-6,6-dimethyl-9H-dibenzo-[b,d]-pyran-9-one, reference compound]
3H-serotonin net release (%) (RBL-2H3 cells; 10µM, 0.1% DMSO and 0.1% ethanol): 0%
inhibition at 5 µM (RBL-2H3 cells; Rattus norvegicus, + anandamide (12.5 µM)): 50%
inhibition at 5 µM (RBL-2H3 cells; Rattus norvegicus, -anandamide): 90%
EC50 (RBL-2H3 cells; Rattus norvegicus, RBL-2H3, read-out: ED50 (µM), inhibition of 3H-serotonin release, +anandamide (12.5 µM)): 5 µM
EC50 (RBL-2H3 cells; Rattus norvegicus, RBL-2H3, read-out: ED50 (µM), inhibition of 3H-serotonin release, -anandamide): 2.8 µM
EC50 (RBL-2H3 cells; Rattus norvegicus, RBL-2H3, read-out: ED50 (µm), inhibition of serotonin release, 0.1% DMSO and 0.1% ethanol): 2.8 µM
effect on serotonin release (RBL cells immunogenic activation) (RBL-2H3 cells): able to inhibit, in a concentration-dependent way
EC50 [2]: 3.9 ± 1.1 µM
IC50 (CB2 receptor; IC50 (nM), RBL-2H3 cell membranes, 1% DMSO, means ± SEM): 2.6 ± 1.4 nM
Displacement (%) (CB2 receptor; competitor 10 µM, amides in 0.1% DMSO, Anandamide and Nabilone in 0.1% ethanol): 100%

CCCCCCCCCCCC(=O)NCC(=O)OC [Example 9, N-lauroyl-glycine methylester]
solubility ([1]; in DMSO): > 10000 µg/mL
solubility ([1]; in ethanol): > 10000 µg/mL
water solubility (water solubility): slightly soluble
inhibition at 100 µM (RBL-2H3 cells; [6]): 55%

CCCCCCCCCCCCCCCC(=O)NCCC(=O)O [Example 10, N-palmitoyl-β-alanine]
solubility ([1]; in DMSO): > 5000 µg/mL
solubility ([1]; in ethanol): > 5000 µg/mL
water solubility (water solubility): slightly soluble
inhibition at 100 µM (RBL-2H3 cells; [6]): 47%
EC50 (RBL-2H3 cells; Rattus norvegicus, RBL-2H3, concentration inhibiting by 50% the net release of 3H serotonin, 1% DMSO, 15 minutes release period, means ± SEM, read-out: EC50): 30 µM
